According to publication PMC11869342, “Design and synthesis of novel HDAC6 inhibitor dimer as HDAC6 degrader for cancer treatment by palladium catalysed dimerisation” (Journal of Enzyme Inhibition and Medicinal Chemistry, 2025):

Experiments:
[1] = test system: Ac-α-tubulin; experiment: Western blotting of Ac-α-tubulin in PC-3 cells; format: cell-based, human; conditions: 30 μM, 24 h
Procedure: Figure 3. Western blotting analysis of (a) HDAC6 protein in PC-3 cells treated with various dimer compounds at 30 μM for 24 h, (b) Ac-α-tubulin protein in PC-3 cells treated with various dimer compounds at 30 μM for 24 h, (c) LC-3 I, LC-3 II, and p62 proteins in PC-3 cells treated with various dimer compounds at 30 μM for 24 h, (d) PARP-1 and Caspase-3 proteins in PC-3 cells treated with various dimer compounds at 30 μM for 24 h, (e) p-BUBR1^S670 and p-BUBR1^T680 proteins in PC-3 cells treated with various dimer compounds at 30 μM for 24 h. Glyceraldehyde 3-phosphate dehydrogenase (GAPDH) was used as the loading control.
After compound treatment, the cells were harvested and centrifuged. […] The supernatants quantified by Bio-Rad protein assay kit (Bio-Rad Laboratories, Hercules, CA) were mixed with sample buffer (0.3 M Tris pH6.8, 10% SDS, 50% glycerol, 10% β-mercaptoethanol, and 0.02% bromophenol blue) and heated at 95 °C for 10 min. The protein (30 µg) was separated by electrophoresis in 8% or 12% SDS-PAGE, transferred to PVDF membranes, and detected with specific antibodies (1:1000 dilution for the first and 1:7000 for the second antibodies). The immunoreactive proteins were detected with an enhanced chemiluminescence detection kit (Amersham, Buckinghamshire, UK) and the images were captured by ChemiDoc™ MP System (Bio-Rad Laboratories, Hercules, CA).

[2] = test system: A549 cells; experiment: Sulforhodamine B (SRB) assay, A549; format: cell-based; conditions: Homo sapiens; A549 cells, SRB, 48 h; read-out: GI50 con. ± SEM A549
Procedure: (§1) The A549 and PC-3 human lung and prostate cancer cell lines were acquired from the American Type Culture Collection (Rockville, MD). […] The cultures were kept in a 37 °C incubator with 5% CO2. When the adherent cultures reached 80% confluence, they were passaged using 0.05% trypsin-EDTA. PC-3 and A549 cells were seeded into 96-well plates in RPMI medium with 5% (v/v) foetal bovine serum for 24 h. Cells in partial wells were fixed with 10% trichloroacetic acid (TCA) to represent the initial time of compound treatment. The cells were treated with or without the indicated compound for 48 h and then were fixed with 10% TCA. After the washout with ddH2O and air-dried, SRB at 0.4% (w/v) in 1% acetic acid was added for staining. Unbound SRB was washed with 1% acetic acid and SRB-bounded cells were solubilised with 10 mM Tris base. The absorbance was read at a wavelength of 515 nm for the determination of cell growth.

[3] = test system: PC-3 cells; experiment: Sulforhodamine B (SRB) assay, PC-3; format: cell-based; conditions: Homo sapiens; PC-3 cells, SRB, 48 h; read-out: GI50 con. ± SEM PC-3
Procedure: as §1

[4] = Solubility as observed when conducting assays; format: physicochemical
[5] = molecular target: T1, HDAC6 (Homo sapiens, UniProt Q9UBN7); experiment: HDAC enzyme activity assay (Reaction Biology), HDAC6; format: biochemical; design: Full-length recombinant hHDAC 6 was expressed in a baculovirus expression system in SF9 cells; purchased Reaction Biology Corporation (Malvern, PA); host or cells: baculovirus / SF9 insect cells; conditions: full-length recombinant hHDAC 6, RHKKAc substrate 50 μM, 2 h at 30 °C
T1 sequence (Q9UBN7 1-1215): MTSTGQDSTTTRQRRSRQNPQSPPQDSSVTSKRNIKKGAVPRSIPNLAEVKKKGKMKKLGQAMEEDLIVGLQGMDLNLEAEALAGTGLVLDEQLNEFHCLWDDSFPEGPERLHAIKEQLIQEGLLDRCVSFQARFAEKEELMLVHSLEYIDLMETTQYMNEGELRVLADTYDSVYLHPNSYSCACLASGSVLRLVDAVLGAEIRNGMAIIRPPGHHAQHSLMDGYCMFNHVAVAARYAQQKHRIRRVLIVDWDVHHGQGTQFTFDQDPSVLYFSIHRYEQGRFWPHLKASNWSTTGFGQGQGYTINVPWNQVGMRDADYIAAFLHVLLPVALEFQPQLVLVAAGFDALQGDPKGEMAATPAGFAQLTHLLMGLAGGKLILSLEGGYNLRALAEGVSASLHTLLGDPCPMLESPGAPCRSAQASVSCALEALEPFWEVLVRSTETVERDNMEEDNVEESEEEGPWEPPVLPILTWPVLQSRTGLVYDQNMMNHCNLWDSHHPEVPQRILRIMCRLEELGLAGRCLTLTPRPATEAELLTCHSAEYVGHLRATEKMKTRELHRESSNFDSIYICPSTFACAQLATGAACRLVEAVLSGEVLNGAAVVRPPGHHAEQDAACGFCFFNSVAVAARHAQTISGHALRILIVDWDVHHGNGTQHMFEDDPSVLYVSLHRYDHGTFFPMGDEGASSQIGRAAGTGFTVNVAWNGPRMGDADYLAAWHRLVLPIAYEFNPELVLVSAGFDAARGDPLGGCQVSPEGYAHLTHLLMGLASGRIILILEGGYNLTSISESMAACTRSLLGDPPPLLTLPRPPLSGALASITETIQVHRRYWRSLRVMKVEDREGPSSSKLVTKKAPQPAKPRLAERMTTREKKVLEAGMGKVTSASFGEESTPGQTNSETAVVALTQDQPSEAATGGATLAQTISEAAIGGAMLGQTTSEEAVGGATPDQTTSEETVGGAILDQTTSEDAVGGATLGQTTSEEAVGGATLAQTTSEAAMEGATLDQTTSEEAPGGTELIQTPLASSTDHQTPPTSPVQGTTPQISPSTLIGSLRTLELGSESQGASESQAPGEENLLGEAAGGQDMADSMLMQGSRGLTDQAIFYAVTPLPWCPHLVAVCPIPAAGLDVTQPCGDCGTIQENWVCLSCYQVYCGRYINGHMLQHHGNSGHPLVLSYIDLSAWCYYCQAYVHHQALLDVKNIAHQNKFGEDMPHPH
Procedure: HDAC inhibition assays were performed by Reaction Biology Corporation (Malvern, PA). Full-length recombinant hHDAC 6 was expressed in a baculovirus expression system in SF9 cells. […] The reaction was stopped after 2 h at 30 °C . Trichostatin A was used as an internal control.

GI50 [2]: > 30 µM | GI50 [3]: > 30 µM | solubility observed when conducting assays [4]: poor solubilities | IC50 [5]: > 10 µM
Structure (SMILES): O=C(NO)c1ccc(Cn2c(=O)n(CCc3ccc(NCCOCCOCCOCCNc4ccc(CCn5c(=O)c6ccccc6n(Cc6ccc(C(=O)NO)cc6)c5=O)cc4)cc3)c(=O)c3ccccc32)cc1 [Compound 6a, 4-({3-[2-(4-{2-[2–(2-{2-[4-(2-{1-[(4-Hydroxamophenyl)methyl]-2,4-dioxoquinazolin-3-yl}ethyl)phenylamino]ethoxy}ethoxy)ethoxy]ethylamino}phenyl)ethyl]-2,4-dioxoquinazolin-1-yl}methyl)benzohydroxamic acid]
Ac-α-tubulin level (Western blot) [1]: unenhanced acetylated α-tubulin
